From US4468511A, “C-20- And C-23-Modified macrolide derivatives” (Eli Lilly and Company, priority 1983, dated 1984)
≈ marks a conversion by molar mass, not a printed value. Read-outs that look alike come from different tables or passages of the source.

Legend:
Escherichia coli EC14 = experiment: MIC, standard agar-dilution assay; type: cell-based
Method: (§1) Certain of the derivatives are active against some gram-negative bacteria, such as Pasteurella species. The MIC's in Table II were determined by standard agar-dilution assays. The MIC's in Table III were obtained using a conventional broth-dilution microtiter test.

Escherichia coli TEM = experiment: MIC, standard agar-dilution assay; type: cell-based; conditions: agar-dilution; Escherichia coli TEM; read-out: MIC
Method: as §1

[1] = system: Klebsiella pneumoniae KAE; experiment: MIC, standard agar-dilution assay; type: cell-based
Method: as §1

[2] = system: Klebsiella pneumoniae X26; experiment: MIC, standard agar-dilution assay; type: cell-based
Method: as §1

[3] = system: Staphylococcus aureus V41; experiment: MIC, standard agar-dilution assay; type: cell-based; conditions: Staphylococcus aureus, V41
Method: as §1

[4] = system: Staphylococcus aureus X1.1; experiment: MIC, standard agar-dilution assay; type: cell-based; conditions: Staphylococcus aureus, X1.1
Method: as §1

[5] = system: Streptococcus Group D X66; experiment: MIC, standard agar-dilution assay; type: cell-based
Method: as §1

[6] = system: Streptococcus pneumoniae Park I; experiment: MIC, standard agar-dilution assay; type: cell-based; conditions: agar-dilution; Streptococcus pneumoniae Park I; read-out: MIC
Method: as §1

[7] = system: Streptococcus pyogenes 9960; experiment: MIC, standard agar-dilution assay; type: cell-based
Method: as §1

[8] = system: Streptococcus pyogenes C203; experiment: MIC, standard agar-dilution assay; type: cell-based
Method: as §1

[9] = system: Haemophilus influenzae 76; experiment: MIC, standard agar-dilution assay; type: cell-based; conditions: agar-dilution; Haemophilus influenzae 76, Ampicillin-resistant strain; read-out: MIC
Method: (§2) The MIC's in Table II were determined by standard agar-dilution assays. The MIC's in Table III were obtained using a conventional broth-dilution microtiter test.

[10] = system: Haemophilus influenzae C.L.; experiment: MIC, standard agar-dilution assay; type: cell-based
Method: as §2

[11] = system: Staphylococcus aureus X400; experiment: MIC, standard agar-dilution assay; type: cell-based; conditions: Staphylococcus aureus, X400
Method: as §2

[12] = system: Staphylococcus epidermidis EPI2; experiment: MIC, standard agar-dilution assay; type: cell-based
Method: as §2

[13] = system: Staphylococcus aureus S13E; experiment: microbe, parasite or virus in culture; type: cell-based
Method: as §2

[14] = system: Staphylococcus epidermidis EPI1; experiment: microbe, parasite or virus in culture; type: cell-based; conditions: Staphylococcus epidermidis, EPI1
Method: as §2

[15] = system: Mycoplasma gallisepticum 34159; experiment: MIC, conventional broth-dilution microtiter test; type: cell-based; conditions: Mycoplasmoides gallisepticum
Method: as §1

[16] = system: Mycoplasma gallisepticum 41313; experiment: MIC, conventional broth-dilution microtiter test; type: cell-based; conditions: Mycoplasmoides gallisepticum
Method: as §1

Mycoplasma gallisepticum = experiment: MIC, conventional broth-dilution microtiter test; type: cell-based; conditions: Mycoplasmoides gallisepticum
Method: as §1

Mycoplasma hyorhinis = experiment: MIC, conventional broth-dilution microtiter test; type: cell-based; conditions: broth-dilution microtiter; Mycoplasma hyorhinis; read-out: MIC
Method: as §1

Mycoplasma synoviae = experiment: MIC, conventional broth-dilution microtiter test; type: cell-based; conditions: Mycoplasmopsis synoviae
Method: as §1

[17] = system: Pasteurella hemolytica 22C; experiment: MIC, conventional broth-dilution microtiter test; type: cell-based; conditions: broth-dilution microtiter; Pasteurella hemolytica 22C; read-out: MIC
Method: as §1

[18] = system: Pasteurella hemolytica 23C; experiment: MIC, conventional broth-dilution microtiter test; type: cell-based; conditions: broth-dilution microtiter; Pasteurella hemolytica 23C; read-out: MIC
Method: as §1

[19] = system: Pasteurella hemolytica 41D; experiment: MIC, conventional broth-dilution microtiter test; type: cell-based; conditions: broth-dilution microtiter; Pasteurella hemolytica 41D; read-out: MIC
Method: as §1

[20] = system: Pasteurella multocida 17E; experiment: MIC, conventional broth-dilution microtiter test; type: cell-based
Method: as §1

[21] = system: Pasteurella multocida 22A; experiment: MIC, conventional broth-dilution microtiter test; type: cell-based
Method: as §1

[22] = system: Pasteurella multocida 40G; experiment: MIC, conventional broth-dilution microtiter test; type: cell-based
Method: as §1

[23] = system: Pasteurella multocida 60A; experiment: MIC, conventional broth-dilution microtiter test; type: cell-based
Method: as §1

[24] = system: Pasteurella multocida 68C; experiment: MIC, conventional broth-dilution microtiter test; type: cell-based
Method: as §1

Staphylococcus aureus = experiment: MIC, conventional broth-dilution microtiter test; type: cell-based; conditions: broth-dilution microtiter, read-out: MIC
Method: as §1

Streptococcus sp. 80 = experiment: MIC, conventional broth-dilution microtiter test; type: cell-based
Method: as §1

[25] = system: Streptococcus pyogenes C203; experiment: Protection of mice experimentally infected with S. pyogenes C203; type: in vivo; conditions: mg/kg × 2, doses given 1 and 4 hours postinfection
Method: Some of the derivatives of this invention have shown in vivo antimicrobial activity against experimentally-induced infections in laboratory animals. When two doses of test compound were administered to mice experimentally infected with S. pyogenes C203, the activity observed was measured as an ED50 value [effective dose in mg/kg to protect 50% of the test animals: see Warren Wick, et al., J. Bacteriol. 81, 233-235 (1961)].

[26] = agar-dilution, Escherichia coli EC14, read-out: MIC
[27] = agar-dilution, Klebsiella pneumoniae KAE, read-out: MIC
[28] = agar-dilution, Klebsiella pneumoniae X26, read-out: MIC
[29] = agar-dilution, Streptococcus Group D X66, read-out: MIC
[30] = Staphylococcus epidermidis, EPI2
[31] = broth-dilution microtiter, Mycoplasma gallisepticum 34159, Resistant strain, read-out: MIC
[32] = broth-dilution microtiter, Mycoplasma gallisepticum 41313, Resistant strain, read-out: MIC
[33] = broth-dilution microtiter, Mycoplasma gallisepticum, read-out: MIC
[34] = broth-dilution microtiter, Streptococcus sp. 80, read-out: MIC
[35] = C203, mice, oral, read-out: ED50 Oral
[36] = C203, sc, mice, subcutaneous, read-out: ED50 Subcutaneous
[37] = agar-dilution, Streptococcus 9960, read-out: MIC
[38] = agar-dilution, Streptococcus pyogenes C203, read-out: MIC
[39] = broth-dilution microtiter, Mycoplasma synoviae, read-out: MIC
[40] = broth-dilution microtiter, Pasteurella multocida 60A, Avian isolate, read-out: MIC

Structure (SMILES) | MIC (Escherichia coli EC14; [26]) | MIC (Escherichia coli TEM) | MIC [1, 27] | MIC [2, 28] | MIC [3] | MIC [4] | MIC [5, 29] | MIC [6] | MIC [9] | MIC [11] | MIC [12, 30] | MIC [13] | MIC [14] | MIC [15, 31] | MIC [16, 32] | MIC (Mycoplasma hyorhinis) | MIC [17] | MIC [18] | MIC [19] | MIC (Staphylococcus aureus) | other results
CCC1OC(=O)CC(O)C(C)C(OC2OC(C)C(O)C(N(C)C)C2O)C(CCOc2ccccc2)CC(C)C(=O)C=CC(C)=CC1COc1ccccc1 (stereo not drawn) [Compound 32, 20,23-Di-O-phenyl-20-dihydro-OMT] | > 128 µg/mL | > 128 µg/mL | > 128 µg/mL | > 128 µg/mL | 1 µg/mL (≈ 1.33 µM) | 1 µg/mL (≈ 1.33 µM) | 0.5 µg/mL (≈ 0.665 µM) | 0.25 µg/mL (≈ 0.332 µM) | > 128 µg/mL | 2 µg/mL (≈ 2.66 µM) | 1 µg/mL (≈ 1.33 µM) | 1 µg/mL (≈ 1.33 µM) | 1 µg/mL (≈ 1.33 µM) | 6.25 µg/mL (≈ 8.31 µM) | 25 µg/mL (≈ 33.2 µM) | 50 µg/mL (≈ 66.5 µM) | 12.5 µg/mL (≈ 16.6 µM) | 12.5 µg/mL (≈ 16.6 µM) | 12.5 µg/mL (≈ 16.6 µM) | 0.39 µg/mL (≈ 0.519 µM) | MIC [7]; 9960: 2 µg/mL (≈ 2.66 µM); MIC ([8]; Streptococcus pyogenes, C203): 2 µg/mL (≈ 2.66 µM); MIC ([10]; agar-dilution, Haemophilus influenzae C.L., Ampicillin-sensitive strain, read-out: MIC): > 128 µg/mL; MIC (Mycoplasma gallisepticum; [33]): 0.78 µg/mL (≈ 1.04 µM); MIC (Mycoplasma synoviae): 6.25 µg/mL (≈ 8.31 µM); MIC ([20]; Pasteurella multocida, 17E): 3.12 µg/mL (≈ 4.15 µM); MIC ([21]; Pasteurella multocida, 22A): 3.12 µg/mL (≈ 4.15 µM); MIC ([22]; Pasteurella multocida, 40G): 3.12 µg/mL (≈ 4.15 µM); MIC ([23]; Pasteurella multocida, 60A): 3.12 µg/mL (≈ 4.15 µM); MIC ([24]; Pasteurella multocida, 68C): 3.12 µg/mL (≈ 4.15 µM); MIC (Streptococcus sp. 80; [34]): 0.048 µg/mL (≈ 0.0638 µM); ED50 [25, 35]: > 50 mg/kg; ED50 [25, 36]: > 10 mg/kg
CCC1CC(C)C(=O)C=CC(C)=CC(COc2cccc(OC)c2OC)C(CC)OC(=O)CC(O)C(C)C1OC1OC(C)C(O)C(N(C)C)C1O (stereo not drawn) [Compound 47, 23-O-(2,3-Dimethoxyphenyl)-20-deoxy-20-dihydro-OMT] | > 128 µg/mL | 128 µg/mL (≈ 178 µM) | > 128 µg/mL |  | 0.25 µg/mL (≈ 0.347 µM) | 0.25 µg/mL (≈ 0.347 µM) | 0.25 µg/mL (≈ 0.347 µM) |  | 16 µg/mL (≈ 22.2 µM) | 0.25 µg/mL (≈ 0.347 µM) | 0.25 µg/mL (≈ 0.347 µM) | 0.25 µg/mL (≈ 0.347 µM) | 0.25 µg/mL (≈ 0.347 µM) |  |  | 25 µg/mL (≈ 34.7 µM) | 25 µg/mL (≈ 34.7 µM) | 25 µg/mL (≈ 34.7 µM) | 25 µg/mL (≈ 34.7 µM) | 3.12 µg/mL (≈ 4.33 µM) | MIC ([2]; Klebsiella pneumoniae, X26): 4 µg/mL (≈ 5.56 µM); MIC [7, 37]: 0.25 µg/mL (≈ 0.347 µM); MIC [8, 38]: 0.25 µg/mL (≈ 0.347 µM); MIC ([10]; Haemophilus influenzae): 32 µg/mL (≈ 44.4 µM); MIC [15]; 34159: 50 µg/mL (≈ 69.5 µM); MIC [16]; 41313: 50 µg/mL (≈ 69.5 µM); MIC (Mycoplasma gallisepticum): 1.56 µg/mL (≈ 2.17 µM); MIC (Mycoplasma synoviae; [39]): 6.25 µg/mL (≈ 8.68 µM); MIC ([20]; broth-dilution microtiter, Pasteurella multocida 17E, Bovine isolate, read-out: MIC): 25 µg/mL (≈ 34.7 µM); MIC ([21]; Pasteurella multocida, 22A): 50 µg/mL (≈ 69.5 µM); MIC ([22]; Pasteurella multocida, 40G): 12.5 µg/mL (≈ 17.4 µM); MIC [23, 40]: 25 µg/mL (≈ 34.7 µM); MIC ([24]; Pasteurella multocida, 68C): 12.5 µg/mL (≈ 17.4 µM); MIC (Streptococcus sp. 80; Streptococcus, SP.80): 1.56 µg/mL (≈ 2.17 µM); ED50 [25, 35]: > 50 mg/kg; ED50 [25, 36]: > 10 mg/kg
CCC1OC(=O)CC(O)C(C)C(OC2OC(C)C(O)C(N(C)C)C2O)C(CCO)CC(C)C(=O)C=CC(C)=CC1CN1CCCCCCC1 (stereo not drawn) [Compound 58, 20-Dihydro-23-Octahydroazocin-1-yl-23-deoxy-OMT] |  | 8 µg/mL (≈ 11.5 µM) |  | 2 µg/mL (≈ 2.88 µM) | 0.5 µg/mL (≈ 0.719 µM) | 0.5 µg/mL (≈ 0.719 µM) |  | 0.25 µg/mL (≈ 0.36 µM) | 4 µg/mL (≈ 5.76 µM) | 1 µg/mL (≈ 1.44 µM) |  | 0.5 µg/mL (≈ 0.719 µM) | 0.5 µg/mL (≈ 0.719 µM) | > 50 µg/mL | 50 µg/mL (≈ 71.9 µM) | 25 µg/mL (≈ 36 µM) | 0.78 µg/mL (≈ 1.12 µM) | 0.78 µg/mL (≈ 1.12 µM) | 0.39 µg/mL (≈ 0.561 µM) | 0.78 µg/mL (≈ 1.12 µM) | MIC (Escherichia coli EC14; Escherichia coli, EC14): 64 µg/mL (≈ 92.1 µM); MIC ([1]; Klebsiella pneumoniae): 64 µg/mL (≈ 92.1 µM); MIC [5]: 2 µg/mL (≈ 2.88 µM); MIC [7, 37]: 4 µg/mL (≈ 5.76 µM); MIC [8, 38]: 0.25 µg/mL (≈ 0.36 µM); MIC ([10]; Haemophilus influenzae): 2 µg/mL (≈ 2.88 µM); MIC ([12]; agar-dilution, Staphylococcus epidermidis EPI2, read-out: MIC): 0.25 µg/mL (≈ 0.36 µM); MIC (Mycoplasma gallisepticum; [33]): 0.39 µg/mL (≈ 0.561 µM); MIC (Mycoplasma synoviae; [39]): 6.25 µg/mL (≈ 8.99 µM); MIC ([20]; Pasteurella multocida, 17E): 3.12 µg/mL (≈ 4.49 µM); MIC ([21]; broth-dilution microtiter, Pasteurella multocida 22A, read-out: MIC): 1.56 µg/mL (≈ 2.24 µM); MIC ([22]; broth-dilution microtiter, Pasteurella multocida 40G, read-out: MIC): 0.39 µg/mL (≈ 0.561 µM); MIC [23, 40]: 0.78 µg/mL (≈ 1.12 µM); MIC ([24]; broth-dilution microtiter, Pasteurella multocida 68C, read-out: MIC): 1.56 µg/mL (≈ 2.24 µM); MIC (Streptococcus sp. 80; [34]): 1.56 µg/mL (≈ 2.24 µM)
